From US9877923B2, “Process for preparing therapeutic nanoparticles” (Pfizer Inc., priority 2012, dated 2018)
≈ marks a conversion by molar mass, not a printed value.

Experiments:
[1] = Drug recovery during in vitro release experiments; type: physicochemical; conditions: after 4 hr incubation at 37° C.
From the text: Release data of 24 hr and 48 hr, in Table 4, are underlined because the drug recovered at these two time points show significant degradation (data are shown in the bottom of the table in the Drug Recovery section).

[2] = Dasatinib solubility in selected solvents with or without acid doping (by HPLC); conditions: organic solvent or mixture

stability of dasatinib during incubation [1]: degradation of dasatinib is observed
solubility ([2]; 1% TFA in benzyl alcohol): 56.5 mg/mL (≈ 116 mM)
solubility ([2]; 2% TFA in benzyl alcohol): 103 mg/mL (≈ 211 mM)
solubility ([2]; 3% TFA in 7.5% water in benzyl alcohol): 157 mg/mL (≈ 322 mM)
solubility ([2]; 3% TFA in benzyl alcohol): 141 mg/mL (≈ 289 mM)
solubility ([2]; 7.5% water in benzyl alcohol): 32.8 mg/mL (≈ 67.1 mM)
SMILES: Cc1nc(Nc2ncc(C(=O)Nc3c(C)cccc3Cl)s2)cc(N2CCN(CCO)CC2)n1 [Dasatinib, dasatinib]
